Laboratory results: the NIST ThermoML archive (doi:10.1016/j.tca.2004.07.014)
Numbers after ± are expanded uncertainties.

Tests used:
[1] = 303.15 K, 101.3 kPa, Liquid; for speed of sound: Linear variable-path acoustic interferometer
[2] = xn = mol fraction of the nth substance listed; conditions: 303.15 K, 101.3 kPa, Liquid; for speed of sound: Linear variable-path acoustic interferometer

ClC(Cl)(Cl)Cl [tetrachloromethane]
[1]
Conditions | mass density [kg/m3] | speed of sound [m/s] | viscosity [mPa·s]
– | 1574.82 ± 1.4 | 905 ± 2 | 0.844 ± 0.011

ClC(Cl)(Cl)Cl [tetrachloromethane] + CCOC(=O)CCl
[2], x2 = 0
Conditions | mass density [kg/m3] | speed of sound [m/s] | viscosity [mPa·s]
– | 1574.82 ± 1.4 | 905 ± 2 | 0.844 ± 0.022

CCOC(=O)CCl [ethyl chloroethanoate] + ClC(Cl)(Cl)Cl
[2]
Conditions | mass density [kg/m3] | speed of sound [m/s] | viscosity [mPa·s]
x1 = 0.095 | 1530.01 ± 1.3 | 933 ± 2 | 0.853 ± 0.022
x1 = 0.1992 | 1481.59 ± 1.2 | 964 ± 2 | 0.862 ± 0.022
x1 = 0.298 | 1436.61 ± 1.1 | 994 ± 2 | 0.862 ± 0.022
x1 = 0.3972 | 1392.26 ± 1 | 1025 ± 2 | 0.87 ± 0.022
x1 = 0.5 | 1347.02 ± 0.95 | 1058 ± 2 | 0.891 ± 0.023
x1 = 0.5978 | 1304.82 ± 0.86 | 1089 ± 2 | 0.928 ± 0.023
x1 = 0.6984 | 1262.23 ± 0.77 | 1123 ± 2 | 0.967 ± 0.024
x1 = 0.8044 | 1218.14 ± 0.68 | 1158 ± 2 | 1.021 ± 0.025
x1 = 0.8978 | 1180.11 ± 0.61 | 1191 ± 2 | 1.113 ± 0.027
x1 = 1 | 1139.18 ± 0.53 | 1227 ± 3 | 1.275 ± 0.031

CCOC(=O)CC(=O)OCC [diethyl 1,3-propanedioate] + ClC(Cl)(Cl)Cl
[2]
Conditions | mass density [kg/m3] | speed of sound [m/s] | viscosity [mPa·s]
x1 = 0.1173 | 1480.36 ± 1.2 | 949 ± 2 | 0.857 ± 0.011
x1 = 0.2031 | 1419.02 ± 1.1 | 982 ± 2 | 0.877 ± 0.011
x1 = 0.2999 | 1356.61 ± 0.96 | 1018 ± 2 | 0.918 ± 0.012
x1 = 0.4623 | 1265.6 ± 0.81 | 1080 ± 2 | 1.002 ± 0.013
x1 = 0.5648 | 1215.59 ± 0.7 | 1120 ± 2 | 1.084 ± 0.014
x1 = 0.6579 | 1174.08 ± 0.61 | 1154 ± 2 | 1.167 ± 0.015
x1 = 0.7478 | 1136.91 ± 0.53 | 1185 ± 2 | 1.272 ± 0.016
x1 = 0.8311 | 1104.69 ± 0.47 | 1216 ± 3 | 1.388 ± 0.017
x1 = 0.9189 | 1072.19 ± 0.41 | 1247 ± 3 | 1.544 ± 0.019
x1 = 1 | 1043.23 ± 0.36 | 1274 ± 3 | 1.721 ± 0.021

CCOC(=O)CCl [ethyl chloroethanoate]
[1]
Conditions | mass density [kg/m3] | speed of sound [m/s] | viscosity [mPa·s]
– | 1139.18 ± 0.53 | 1227 ± 3 | 1.275 ± 0.016

CCOC(=O)CC(=O)OCC [diethyl 1,3-propanedioate] + ClC(Cl)Cl
[2]
Conditions | mass density [kg/m3] | speed of sound [m/s] | viscosity [mPa·s]
x1 = 0.0968 | 1399.36 ± 1 | 999 ± 2 | 0.533 ± 0.008
x1 = 0.2004 | 1334.53 ± 0.91 | 1031 ± 2 | 0.568 ± 0.008
x1 = 0.3089 | 1276.4 ± 0.8 | 1065 ± 2 | 0.622 ± 0.009
x1 = 0.4122 | 1228.62 ± 0.72 | 1097 ± 2 | 0.692 ± 0.009
x1 = 0.5385 | 1178.25 ± 0.63 | 1136 ± 2 | 0.808 ± 0.011
x1 = 0.6125 | 1151.99 ± 0.57 | 1159 ± 2 | 0.891 ± 0.012
x1 = 0.7225 | 1116.7 ± 0.5 | 1192 ± 2 | 1.05 ± 0.013
x1 = 0.8156 | 1089.85 ± 0.44 | 1220 ± 3 | 1.226 ± 0.016
x1 = 0.9071 | 1065.78 ± 0.4 | 1246 ± 3 | 1.444 ± 0.018

CCOC(=O)C(Br)C(=O)OCC [diethyl bromomalonate] + ClC(Cl)(Cl)Cl
[2]
Conditions | mass density [kg/m3] | speed of sound [m/s] | viscosity [mPa·s]
x1 = 0.1001 | 1552.35 ± 1.4 | 944 ± 2 | 1.012 ± 0.013
x1 = 0.1992 | 1531.61 ± 1.4 | 980 ± 3 | 1.207 ± 0.016
x1 = 0.3007 | 1512.21 ± 1.4 | 1012 ± 3 | 1.433 ± 0.019
x1 = 0.4088 | 1492.99 ± 1.4 | 1047 ± 3 | 1.705 ± 0.023
x1 = 0.4988 | 1478.09 ± 1.5 | 1072 ± 3 | 1.948 ± 0.027
x1 = 0.5999 | 1462.1 ± 1.5 | 1098 ± 3 | 2.255 ± 0.032
x1 = 0.699 | 1446.77 ± 1.6 | 1121 ± 3 | 2.571 ± 0.037
x1 = 0.8988 | 1415.72 ± 1.7 | 1155 ± 3 | 3.25 ± 0.05
x1 = 1 | 1399.18 ± 1.7 | 1166 ± 3 | 3.614 ± 0.057

ClC(Cl)Cl [trichloromethane]
[1]
Conditions | mass density [kg/m3] | speed of sound [m/s]
– | 1470.59 ± 1.2 | 967 ± 2

Conditions | viscosity [mPa·s]
[1], Capillary tube (Ostwald / Ubbelohde) method | 0.512 ± 0.005

CCOC(=O)C(Br)C(=O)OCC [diethyl bromomalonate] + ClC(Cl)Cl
[2]
Conditions | mass density [kg/m3] | speed of sound [m/s] | viscosity [mPa·s]
x1 = 0.098 | 1460.41 ± 1.2 | 989 ± 2 | 0.709 ± 0.01
x1 = 0.1971 | 1450.47 ± 1.2 | 1010 ± 3 | 0.941 ± 0.013
x1 = 0.296 | 1441.28 ± 1.3 | 1032 ± 3 | 1.2 ± 0.016
x1 = 0.4033 | 1432.36 ± 1.3 | 1054 ± 3 | 1.507 ± 0.02
x1 = 0.5045 | 1424.91 ± 1.4 | 1075 ± 3 | 1.84 ± 0.025
x1 = 0.5919 | 1419.12 ± 1.4 | 1092 ± 3 | 2.141 ± 0.03
x1 = 0.6911 | 1413.32 ± 1.5 | 1112 ± 3 | 2.501 ± 0.036
x1 = 0.7991 | 1407.82 ± 1.6 | 1131 ± 3 | 2.899 ± 0.043
x1 = 0.8997 | 1403.21 ± 1.6 | 1149 ± 3 | 3.253 ± 0.05

CCOC(=O)CCl [ethyl chloroethanoate] + ClC(Cl)Cl
[2]
Conditions | mass density [kg/m3] | speed of sound [m/s] | viscosity [mPa·s]
x1 = 0.0989 | 1429.89 ± 1.1 | 990 ± 2 | 0.617 ± 0.009
x1 = 0.1945 | 1392.15 ± 1 | 1014 ± 2 | 0.687 ± 0.009
x1 = 0.2954 | 1354.22 ± 0.95 | 1038 ± 2 | 0.759 ± 0.01
x1 = 0.3905 | 1320.14 ± 0.89 | 1062 ± 2 | 0.806 ± 0.011
x1 = 0.5048 | 1281.24 ± 0.82 | 1091 ± 2 | 0.852 ± 0.011
x1 = 0.6012 | 1250.32 ± 0.75 | 1115 ± 2 | 0.9 ± 0.012
x1 = 0.6875 | 1223.93 ± 0.69 | 1137 ± 2 | 0.943 ± 0.012
x1 = 0.7658 | 1201.01 ± 0.65 | 1159 ± 2 | 0.989 ± 0.013
x1 = 0.8992 | 1164.5 ± 0.58 | 1198 ± 2 | 1.114 ± 0.014

CCOC(=O)C(Br)C(=O)OCC [diethyl bromomalonate]
[1]
Conditions | mass density [kg/m3] | speed of sound [m/s]
– | 1399.18 ± 1.7 | 1166 ± 3

Conditions | viscosity [mPa·s]
[1], Capillary tube (Ostwald / Ubbelohde) method | 3.614 ± 0.046

ClC(Cl)Cl [trichloromethane] + CCOC(=O)CCl
[2], x2 = 0
Conditions | mass density [kg/m3] | speed of sound [m/s] | viscosity [mPa·s]
– | 1470.59 ± 1.2 | 967 ± 2 | 0.512 ± 0.008

CCOC(=O)CC(=O)OCC [diethyl 1,3-propanedioate]
[1]
Conditions | mass density [kg/m3] | speed of sound [m/s]
– | 1043.23 ± 0.36 | 1274 ± 3

Conditions | viscosity [mPa·s]
[1], Capillary tube (Ostwald / Ubbelohde) method | 1.721 ± 0.013
